Assay results reported in the METLIN SMRT retention time set (Domingo-Almenara et al. 2019).

Experiment: gradient 5% acetonitrile 3 min, to 50% in 2 min, to 85% in 15 min, held 3 min, 100 µL/min
Settings: column: Zorbax Extend-C18 2.1 x 50 mm; eluents: water / acetonitrile, 0.1% formic acid
In short: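 The mobile phases were water and acetonitrile, each with 0.1% formic acid, pumped at 100 μL/min through a Zorbax Extend-C18 column (2.1 × 50 mm, 1.8 μm). Pure standards were injected as mixtures of ~100 molecules and detected by a quadrupole time-of-flight mass spectrometer in positive and negative ionization mode. Retention time came from computationally picked adduct peaks, each inspected by hand.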

SMILES | RP-LC retention time [s]
CCOc1ccc(N2C=C(C(=O)N3CCCC3)S(=O)(=O)c3ccc(Cl)cc32)cc1 | 930
O=C(COc1ccccc1F)N1CCN(Cc2nc(C3CC3)cs2)CC1 | 640
Cc1ccccc1NC(=O)N1CCN(c2nc(N3CCOCC3)nc(-n3ccnc3)n2)CC1 | 603
CCOC(=O)c1ccc2c(=O)c(C(=O)OCC)c[nH]c2c1 | 661
CCN1CCCC1CNC(=O)C1CCN(S(=O)(=O)c2ccc3c(c2)sc(=O)n3C)CC1 (centres undefined) | 794
Cc1cc(-c2nnc(C3CC3)o2)c(C)n1CC(=O)Nc1cccc(F)c1 | 825
Cc1cc(N2CCN(C(=O)c3ccc(Br)o3)CC2)nc(N2CCCC2)n1 | 636
O=C(NCCc1csc(-c2cccs2)n1)C1CCN(C(=O)c2ccc(F)c(F)c2)CC1 | 809
CCn1c(SCC(=O)N2CCCCC2)nnc1-c1ccc2c(c1)OCCCO2 | 734
Cc1onc(-c2ccccc2Cl)c1C(=O)NCCn1nc(-c2ccccc2)n(C)c1=O | 708
COc1cc2ncc(S(=O)(=O)c3ccc(C)c(C)c3)c(N3CCN(C)CC3)c2cc1OC | 629
COc1cccc(N2CCN(C(=O)Cc3csc4nc(-c5ccccc5)cn34)CC2)c1 | 833
CC1CCN(CCCNC(=O)C2(O)c3ccccc3NC(=O)N2c2ccc(Cl)cc2)CC1 (centres undefined) | 582
O=C(Cc1ccccc1Cl)N1CCC2(CC1)N=C(c1ccccc1)NO2 | 841
O=C(Oc1coc(CSc2ncccn2)cc1=O)c1cccs1 | 695
Cc1ccccc1-c1noc(C2CCCN2C(=O)Nc2cc(F)ccc2F)n1 (centres undefined) | 1080
CCc1ccc(-c2nc(-c3ccc4c(c3)N(CC)C(=O)CO4)no2)cc1 | 1320
O=c1ccc(-c2ccc(F)cc2)nn1CCc1nc(-c2cccc(Br)c2)no1 | 1100
Cc1ccccc1N1CCN(C(=O)Cn2c(=O)c3nnc(C)n3c3ncccc32)CC1 | 793

SMILES | RP-LC retention time [s]
O=C1CN(S(=O)(=O)c2ccccc2C(F)(F)F)CC2(CCCCC2)N1C1CCCC1 | 1230
O=C(NCc1cc(F)ccc1F)c1cn2c(n1)CCCC2 | 601
Cc1c(C(=O)C(=O)Nc2ccc(F)cc2)c2ccccc2n1C | 921
Cc1nc(NS(=O)(=O)c2ccccc2)sc1C(=O)NCc1c(F)cccc1F | 718
O=C(NCc1ccccc1C(F)(F)F)C1=C2CCCN2c2ccccc2S1(=O)=O | 916
CCOc1ccc(C(O)CN2CCN(c3ccccn3)CC2)cc1 (centres undefined) | 560
O=S(=O)(c1ccc(-c2noc(-c3ccc(F)cc3)n2)cc1)N1CCOCC1 | 1050
CCS(=O)(=O)c1nc2ccc(NS(=O)(=O)c3ccc(OC)cc3)cc2s1 | 833
CC1CCN(S(=O)(=O)c2ccc(-c3cc(C(F)(F)F)on3)o2)CC1 | 1190
CC(=O)N1CCN(c2nc(-c3ccccc3)c3cc(Br)ccc3n2)CC1 | 1010
CC(C)(C)c1csc(NC(=O)c2ccc3c(c2)OCCO3)n1 | 976
CCOC(=O)c1c(C)oc2ncnc(NCC3CCN(Cc4ccccc4F)CC3)c12 | 694
COc1cccc2sc(N3CCN(C(=O)C4CCN(S(C)(=O)=O)CC4)CC3)nc12 | 697
Cc1[nH]c2ccccc2c1C(=O)C(=O)N1CC2CC(C1)c1cccc(=O)n1C2 (centres undefined) | 612
COC(=O)c1ccc(Cn2cnc3c(Cl)ncnc32)cc1 | 790
Cn1cc(-c2ccncc2)cc1C(=O)NCc1cccc(F)c1 | 630
c1ccc(-c2nc3cc(-c4noc(C5CCOC5)n4)ccc3o2)cc1 (centres undefined) | 1100
Cc1cc(S(=O)(=O)N2CCc3nn(C)c(=O)n3CC2)ccc1Cl | 744

Other lines, results leading:

RP-LC retention time [s] | SMILES
1010 | CCc1ccccc1S(=O)(=O)N1CCc2c(c(-c3nc(C4CC4)no3)nn2C)C1
571 | Cc1ccc(-c2ccc(N3CCCC(C(=O)NCCCN4CCOCC4)C3)nn2)cc1 (centres undefined)
579 | Cc1ccnc(N2CCC(C(=O)NCCCN3CCCC3=O)CC2)n1
973 | CCOc1ccc2c(n1)CCN(C(=O)Nc1ccccc1OCC)C2
752 | Cc1noc2nc(C)n(CC(=O)NCCc3ccccc3)c(=O)c12
1130 | CC(C)c1ccc(S(=O)(=O)N2CC=C(c3cn(C)c4ncccc34)CC2)cc1
1140 | O=C(NCc1ccc(C(F)(F)F)cc1)C1CCCN(c2nccnc2Sc2ccccc2)C1 (centres undefined)
948 | CCOC(=O)c1noc2nc(C)nc(NCCCN3CCN(c4cc(Cl)ccc4C)CC3)c12
571 | CCc1ccc(S(=O)(=O)N2CCn3c(nnc3C3CCN(C(C)C)C3)C2)cc1 (centres undefined)
694 | Cc1noc(COC2CCN(C(=O)NCCc3ccccc3)CC2)n1
724 | O=C(NCc1ccc(S(=O)(=O)c2cc(F)cc(F)c2)cc1)c1ccc2nccn2c1
716 | CNC(=O)Cc1csc(-c2ccc(F)cc2)n1
1060 | CCOC(=O)c1noc2nc(C)nc(NCc3ccccc3)c12
814 | Cn1nc(-c2cccc(NC(=O)C3c4ccccc4Oc4ccccc43)c2)ccc1=O
628 | O=C(NCc1ccc(F)c(Cl)c1)c1cn2c(n1)CCCC2
677 | Cc1nnc2ccc(NC(=O)Nc3cccc(F)c3)cn12
772 | O=c1[nH]c2sc3c(c2c(=O)n1-c1ccccc1)CCCC3
632 | Cn1cc(C(=O)N2CCN(C3CCCCC3)CC2)c2cccnc21
1010 | O=c1c2oc3ccccc3c2ncn1Cc1nc(-c2cccc(Cl)c2)no1
614 | CCCc1cc(N2CCN(C(=O)C3CCC3)CC2)nc2nnc(C)n12
705 | Cc1nnc2c(NC(=O)c3cc(F)ccc3F)cccn12
675 | Cc1ccc(CNC(=O)Cn2nc3n(c2=O)CCCCC3)cc1
757 | O=C(Cn1c(=O)c(S(=O)(=O)c2ccccc2)cc2ccccc21)N1CCCC1
684 | COc1cc(CN2CC(c3nc(-c4ccsc4)nn3C)C2)ccc1OC(C)C
875 | Cc1ccc(N2CCC(NC(=O)Nc3ccc(C)cc3C)C2=O)cc1 (centres undefined)
732 | COc1cccc(NC2=NS(=O)(=O)c3ccccc32)c1

RP-LC retention time [s] | SMILES
820 | Clc1cccc(-n2ncc3c(SCc4cccnc4)ncnc32)c1
680 | O=C(NCc1cccc(C(F)(F)F)c1)C1(CCO)CCN(Cc2ccccc2)C1 (centres undefined)
1090 | CCc1ccc(-c2noc(Cn3c(=O)n(-c4ccc(F)cc4)c(=O)c4sccc43)n2)cc1
754 | COC(=O)c1ccc2c(=O)n(-c3ccc(Cl)cc3)c(N3CCN(C4CCCCC4)CC3)nc2c1
948 | O=c1n(Cc2ccccc2)nc2c(S(=O)(=O)N3CCCCCC3)cccn12
831 | c1ccc(C(NCc2cccnc2)(c2ccccc2)c2ccccc2)cc1
633 | CCN1CCN(c2nccc(-c3cnc4nc(-c5ccccc5)nn4c3C)n2)CC1
725 | Cc1cccc(OCc2nc(-c3ccnc(N4CCCC4)c3)no2)c1
571 | O=C(c1cc(-c2ccncc2)n[nH]1)N1CCN(C(=O)c2cccc3[nH]ccc23)CC1
1010 | CC(C)CCN1C(=O)CC[C@]2(C(=O)N3CCN(c4ccc(F)cc4)CC3)CCCC[C@@H]12
830 | Cc1sc(NC(=O)Cc2ccccc2)nc1-c1ccc2c(c1)NC(=O)CO2
783 | Cc1cc2nn(CC(=O)Nc3ccc4c(c3)OCCO4)c(=O)n2c(-c2ccc(F)cc2)n1
894 | Cc1ccc(-c2cn3c(CC(=O)NC4CCCCCC4)csc3n2)cc1C
635 | C[C@@H](NC(=O)c1ccccc1Br)C(=O)NCc1cscn1
1040 | COc1ccc(S(=O)(=O)N2CCCC(C(=O)NC3CCCCCC3)C2)cc1C (centres undefined)
801 | CCOc1cc(-c2ccc(F)cc2)nc2ccc(NS(=O)(=O)c3ccc(C#N)cc3)cc12
558 | CS(=O)(=O)N1CCN(C(=O)c2nn(CC3CC3)c3c2CNCC3)CC1
936 | COC(=O)C1=C(C)N(C(C)C)C(=O)C1(NC(=O)CCc1ccccc1)C(F)(F)F (centres undefined)
606 | CNC(=O)c1ccc(Nc2c(-c3ccc(OC)c(OC)c3)nc3cnccn23)cc1
629 | CCC(C(=O)NCCN1CCN(C)CC1)n1nc(C)c2sc3ccccc3c2c1=O (centres undefined)
777 | CC1(C(=O)NCc2ccc(F)cc2)Cn2cnc(C(=O)NCc3ccc(F)cc3)c2C(=O)N1C1CC1 (centres undefined)
623 | O=C(N[C@H]1C[C@@H]2C[C@H]1CN2C(=O)Nc1ccc2c(c1)OCO2)c1cccs1
560 | CN(C)c1ccc2c(c1)CN(C(=O)c1cnn(C)c1)CCO2
875 | O=S(=O)(Cc1ccccc1)N1CCC(c2nc(C3CC3)no2)C1 (centres undefined)
1250 | COc1nc2ccccc2nc1N1CCCC(C(=O)Nc2ccc(Br)cc2)C1 (centres undefined)
809 | CCc1cccc(NC(=O)Cn2c(-c3cnccn3)nc(C)c(C)c2=O)c1
